According to patent US10287305B2, “Substituted piperidine compound and use thereof” (Takeda Pharmaceutical Company Limited, priority 2016, dated 2019):

Biological target: human orexin type 2 receptor (hOX2R) (Homo sapiens (Human), UniProt O43614)
Test: Measurement of orexin type 2 receptor agonist activity (Experimental Example 2-1, FLIPR TETRA, intracellular Ca2+)
Assay type: cell-based
Settings: CHO dhfr- cells expressing hOX2R; for Emax: read-out: Emax (%); for Emax at 30 µM: value at 30 uM concentration, orexin B as full agonist = 100%
[1] = agonist activity, 10 nM human orexin B = 100%

Sequence of human orexin type 2 receptor (hOX2R) (O43614 whole entry): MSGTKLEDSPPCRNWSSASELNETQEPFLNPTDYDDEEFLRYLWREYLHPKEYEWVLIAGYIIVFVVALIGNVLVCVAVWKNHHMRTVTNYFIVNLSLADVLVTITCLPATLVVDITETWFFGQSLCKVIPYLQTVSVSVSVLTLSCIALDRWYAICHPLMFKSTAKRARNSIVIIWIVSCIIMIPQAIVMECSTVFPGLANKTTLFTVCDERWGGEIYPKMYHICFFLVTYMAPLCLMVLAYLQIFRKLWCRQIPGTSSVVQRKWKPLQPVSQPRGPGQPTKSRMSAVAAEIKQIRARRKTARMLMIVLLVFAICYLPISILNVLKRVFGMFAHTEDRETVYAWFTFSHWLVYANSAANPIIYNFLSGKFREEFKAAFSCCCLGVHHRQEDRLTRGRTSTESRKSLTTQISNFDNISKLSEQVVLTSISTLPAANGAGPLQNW

## CCNC(=O)N1CCC[C@H](NS(C)(=O)=O)[C@@H]1CO[C@H]1CC[C@@H](C)CC1 (relative stereo) [Example 129, cis-N-ethyl-2-(((cis-4-methylcyclohexyl)oxy)methyl)-3-((methylsulfonyl)amino)piperidine-1-carboxamide]
FLIPR TETRA, Fluo-4AM
  EC50: 39 nM
  Emax: 96%

## CS(=O)(=O)N[C@H]1CCCN[C@H]1CO[C@H]1CC[C@@H](c2cc(F)ccc2F)CC1 [Example 10, N-((2R,3S)-2-(((cis-4-(2,5-difluorophenyl)cyclohexyl)oxy)methyl)piperidin-3-yl)methanesulfonamide]
[1]
  EC50: 220 nM
  Emax at 30 µM: 113%

## COc1cccc([C@H]2CC[C@@H](OC[C@H]3[C@@H](NS(C)(=O)=O)CCCN3C(=O)C3CC3)CC2)c1 [Example 304, N-((2R,3S)-1-(cyclopropylcarbonyl)-2-(((cis-4-(3-methoxyphenyl)cyclohexyl)oxy)-methyl)piperidin-3-yl)methanesulfonamide]
FLIPR TETRA, Fluo-4AM
  EC50: 23 nM
  Emax: 105%

## COC(=O)N1CCC[C@H](NS(C)(=O)=O)[C@@H]1CO[C@H]1CC[C@@H](c2cccc(OC)c2)CC1 (relative stereo) [Example 270, methyl cis-2-(((cis-4-(3-methoxyphenyl)cyclohexyl)oxy)methyl)-3-((methylsulfonyl)amino)piperidine-1-carboxylate]
FLIPR TETRA, Fluo-4AM
  EC50: 80 nM
  Emax: 102%

## CC(C)C(=O)N1CCC[C@H](NS(C)(=O)=O)[C@@H]1COC1CCN(c2ccccc2F)CC1 (relative stereo) [Example 224, N-(cis-2-(((1-(2-fluorophenyl)piperidin-4-yl)oxy)methyl)-1-isobutyrylpiperidin-3-yl)methanesulfonamide]
FLIPR TETRA, Fluo-4AM
  EC50: 1700 nM
  Emax: 90%

## CCNC(=O)N1CCC[C@H](NS(C)(=O)=O)[C@@H]1CO[C@H]1C[C@@H](c2ccccc2)C1 (relative stereo) [Example 113, cis-N-ethyl-3-((methylsulfonyl)amino)-2-(((cis-3-phenylcyclobutyl)oxy)methyl)piperidine-1-carboxamide]
[1]
  EC50: 59 nM
  Emax at 30 µM: 93%

## CN(C)CC(=O)N1CCC[C@H](NS(C)(=O)=O)[C@@H]1CO[C@H]1CC[C@@H](c2ccccc2)CC1 (relative stereo) [Example 133, N-(cis-1-(N,N-dimethylglycyl)-2-(((cis-4-phenylcyclohexyl)oxy)methyl)piperidin-3-yl)methanesulfonamide]
FLIPR TETRA, Fluo-4AM
  EC50: 1000 nM
  Emax: 97%

## CS(=O)(=O)N[C@H]1CCCN(C(=O)C2CC2)[C@H]1CO[C@H]1CC[C@@H](c2cc(F)cc(F)c2F)CC1 [Example 245, N-((2R,3S)-1-(cyclopropylcarbonyl)-2-(((cis-4-(2,3,5-trifluorophenyl)cyclohexyl)oxy)methyl)piperidin-3-yl)methanesulfonamide]
FLIPR TETRA, Fluo-4AM
  EC50: 2 nM
  Emax: 97%

## CCNC(=O)N1CCC[C@H](NS(C)(=O)=O)[C@@H]1CO[C@H]1CC[C@@H](c2cccc(C(F)(F)F)c2)CC1 (relative stereo) [Example 207, cis-N-ethyl-3-((methylsulfonyl)amino)-2-(((cis-4-(3-(trifluoromethyl)phenyl)cyclohexyl)oxy)methyl)piperidine-1-carboxamide]
FLIPR TETRA, Fluo-4AM
  EC50: 26 nM
  Emax: 110%

## CC(=O)N1CCC[C@H](NS(C)(=O)=O)[C@@H]1CO[C@H]1CC[C@@H](C(F)(F)F)CC1 (relative stereo) [Example 106, N-(cis-1-acetyl-2-(((cis-4-(trifluoromethyl)cyclohexyl)oxy)methyl)piperidin-3-yl)methanesulfonamide]
[1]
  EC50: 4800 nM
  Emax at 30 µM: 89%

## CCOC(=O)N1CCC[C@H](NS(C)(=O)=O)[C@@H]1CO[C@H]1CC[C@@H](c2ccccc2)CC1 [Example 303, ethyl (2R,3S)-3-((methylsulfonyl)amino)-2-(((cis-4-phenylcyclohexyl)oxy)methyl)-piperidine-1-carboxylate]
FLIPR TETRA, Fluo-4AM
  EC50: 15 nM
  Emax: 102%

## CS(=O)(=O)N[C@H]1CCCN(C(=O)C2CC2)[C@H]1CO[C@H]1CC[C@@H](c2cccc(F)c2F)CC1 [Example 250, N-((2R,3S)-1-(cyclopropylcarbonyl)-2-(((cis-4-(2,3-difluorophenyl)cyclohexyl)oxy)methyl)piperidin-3-yl)methanesulfonamide]
FLIPR TETRA, Fluo-4AM
  EC50: 1.7 nM
  Emax: 105%

## CCNC(=O)N1CCC[C@H](NS(C)(=O)=O)[C@@H]1CO[C@H]1CO[C@@H](c2ccccc2)OC1 (relative stereo) [Example 140, cis-N-ethyl-3-((methylsulfonyl)amino)-2-(((cis-2-phenyl-1,3-dioxan-5-yl)oxy)methyl)piperidine-1-carboxamide]
FLIPR TETRA, Fluo-4AM
  EC50: 390 nM
  Emax: 92%

## CC(=O)N1CCC[C@H](NS(C)(=O)=O)[C@@H]1CO[C@H]1CC[C@@H](c2ccccc2Cl)CC1 (relative stereo) [Example 334, N-(cis-1-acetyl-2-(((cis-4-(2-chlorophenyl)cyclohexyl)oxy)-methyl)piperidin-3-yl)methanesulfonamide]
FLIPR TETRA, Fluo-4AM
  EC50: 27 nM
  Emax: 93%

## CC(=O)N1CCC[C@H](NS(C)(=O)=O)[C@@H]1CO[C@H]1CC[C@@H](C2CCCCC2)CC1 [Example 71, N-(cis-1-acetyl-2-(((1s,4s)-1,1′-bi(cyclohexyl)-4-yloxy)methyl)piperidin-3-yl)methanesulfonamide]
[1]
  EC50: 4300 nM
  Emax at 30 µM: 83%

## COC(=O)N1CCC[C@H](NS(C)(=O)=O)[C@@H]1CO[C@H]1CC[C@@H](c2cccc(OC(F)(F)F)c2)CC1 (relative stereo) [Example 298, methyl cis-3-((methylsulfonyl)amino)-2-(((cis-4-(3-(trifluoromethoxy)phenyl)cyclohexyl)oxy)methyl)piperidine-1-carboxylate]
FLIPR TETRA, Fluo-4AM
  Emax: 92%

## CC(C)[C@H]1CC[C@@H](OC[C@H]2[C@@H](NS(C)(=O)=O)CCCN2C(=O)NCCO)CC1 (relative stereo) [Example 97, cis-N-(2-hydroxyethyl)-2-(((cis-4-isopropylcyclohexyl)oxy)methyl)-3-((methylsulfonyl)amino)piperidine-1-carboxamide]
[1]
  EC50: 4.5 nM
  Emax at 30 µM: 108%

## CC(C)[C@H]1CC[C@@H](OC[C@H]2[C@@H](NS(C)(=O)=O)CCCN2C(=O)CCO)CC1 (relative stereo) [Example 72, N-(cis-1-(3-hydroxypropanoyl)-2-(((cis-4-isopropylcyclohexyl)oxy)methyl)piperidin-3-yl)methanesulfonamide]
[1]
  EC50: 89 nM
  Emax at 30 µM: 96%

## CCNC(=O)N1CCC[C@H](NS(C)(=O)=O)[C@@H]1CO[C@H]1CC[C@@H](c2ccccc2C(F)(F)F)CC1 (relative stereo) [Example 249, cis-N-ethyl-3-((methylsulfonyl)amino)-2-(((cis-4-(2-(trifluoromethyl)phenyl)cyclohexyl)oxy)methyl)piperidine-1-carboxamide]
FLIPR TETRA, Fluo-4AM
  EC50: 0.61 nM
  Emax: 99%

## CC(=O)N1CCC[C@H](NS(C)(=O)=O)[C@@H]1CO[C@H]1CC[C@@H](c2cc(F)cc(F)c2)CC1 [Example 8, N-((2R,3S)-1-acetyl-2-(((cis-4-(3,5-difluorophenyl)cyclohexyl)oxy)methyl)piperidin-3-yl)methanesulfonamide]
[1]
  EC50: 5.6 nM
  Emax at 30 µM: 96%

## CS(=O)(=O)N[C@H]1CCCN(C(=O)C2CC2)[C@H]1CO[C@H]1C[C@@H](c2ccccc2)C1 (relative stereo) [Example 193, N-(cis-1-(cyclopropylcarbonyl)-2-(((cis-3-phenylcyclobutyl)oxy)methyl)piperidin-3-yl)methanesulfonamide]
FLIPR TETRA, Fluo-4AM
  EC50: 300 nM
  Emax: 88%

## CCNC(=O)N1CCC[C@H](NS(C)(=O)=O)[C@@H]1CO[C@H]1C[C@H](c2ccccc2)C1 (relative stereo) [Example 130, cis-N-ethyl-3-((methylsulfonyl)amino)-2-(((trans-3-phenylcyclobutyl)oxy)methyl)piperidine-1-carboxamide]
FLIPR TETRA, Fluo-4AM
  EC50: 460 nM
  Emax: 96%

## CS(=O)(=O)N[C@H]1CCCN(C(=O)C2CC2)[C@H]1CO[C@H]1CC[C@@H](c2c(F)cccc2F)CC1 [Example 213, N-((2R,3S)-1-(cyclopropylcarbonyl)-2-(((cis-4-(2,6-difluorophenyl)cyclohexyl)oxy)methyl)piperidin-3-yl)methanesulfonamide]
FLIPR TETRA, Fluo-4AM
  EC50: 0.44 nM
  Emax: 102%

## COC(=O)N1CCC[C@H](NS(C)(=O)=O)[C@@H]1CO[C@H]1CC[C@@]2(CC1)OCc1ccccc12 [Example 274, methyl cis-3-((methylsulfonyl)amino)-2-(((1r,4′r)-3H-spiro[2-benzofuran-1,1′-cyclohexan]-4′-yloxy)methyl)piperidine-1-carboxylate]
FLIPR TETRA, Fluo-4AM
  EC50: 260 nM
  Emax: 118%

## CNC(=O)N1CCC[C@H](NS(C)(=O)=O)[C@@H]1CO[C@H]1CC[C@@H](C(C)C)CC1 [Example 102, (2R,3S)-2-(((cis-4-isopropylcyclohexyl)oxy)methyl)-N-methyl-3-((methylsulfonyl)amino)piperidine-1-carboxamide]
[1]
  EC50: 1.2 nM
  Emax at 30 µM: 101%

## Cc1nc(S(=O)(=O)N2CCC[C@H](NS(C)(=O)=O)[C@@H]2CO[C@H]2CC[C@@H](C(C)C)CC2)cn1C (relative stereo) [Example 65, N-(cis-1-((1,2-dimethyl-1H-imidazol-4-yl)sulfonyl)-2-(((cis-4-isopropylcyclohexyl)oxy)methyl)piperidin-3-yl)methanesulfonamide]
[1]
  EC50: 1300 nM
  Emax at 30 µM: 95%

## CCNC(=O)N1CCC[C@H](NS(C)(=O)=O)[C@@H]1CO[C@H]1CC[C@@H](c2ccccc2OC(F)(F)F)CC1 (relative stereo) [Example 295, cis-N-ethyl-3-((methylsulfonyl)amino)-2-(((cis-4-(2-(trifluoromethoxy)phenyl)cyclohexyl)oxy)methyl)piperidine-1-carboxamide]
FLIPR TETRA, Fluo-4AM
  EC50: 4.2 nM
  Emax: 93%
